One test deals with hepatitis-C. As to the kind of experiment: Free ATRA (oral) in a patient positive for hepatitis-C (Example 2).
The next test has as its system hepatitis-A. As to the kind of experiment: Free ATRA (oral) in a patient positive for hepatitis-A (Example 3).
[1] abbreviates: blood, one month subsequent to the 3-week point.
Where [2] appears, read: four months after beginning use of ATRA.
Where [3] appears, read: one month subsequent to the 3-week point.

On to `CC1=C(/C=C/C(C)=C/C=C/C(C)=C/C(=O)O)C(C)(C)CCC1` [free ATRA, all-trans retinoic acid], for which the viral load in the test with hepatitis-C (setting [1]) is recorded as less than 11000 copies/ml; in the test on hepatitis-A (setting [1]), < 1,000 copies/ml. In addition, the PCR status entry in the test on hepatitis-C (setting [2]) and in the test on hepatitis-A (setting [2]) was “negative” in each case. In addition, the “blood chemistry as to hepatitis C (SPGT and SGOT, bilirubin, alkaline phosphatase)” value in the test with hepatitis-C (setting [3]) is recorded as “normal”. Also, the “blood chemistry as to hepatitis A (SPGT and SGOT, bilirubin, alkaline phosphatase)” value with hepatitis-A (setting [3]) is on record as “normal”.

For the origin of these results see patent US20040127566A1, “Retinoid hepatitis therapy” (priority 2004, published 2004).
